Reference: patent publication US20250326933A1, “SOLID COMPOSITION OF INDOCYANINE GREEN AND SODIUM FLUORESCEIN” (ICROM Srl, priority 2021, published 2025)

Key:
[1] = Solubility in water evaluated by filtration of the solution on a syringe filter; format: physicochemical
[2] = Stability of the compounds of formula (IA) and (IB) and of their solid composition by HPLC; format: physicochemical; details: for Stability by HPLC as such and after freeze-drying: (IA) with or without iodide
Method: The formulations from 13 to 18 and the compounds used for the preparation thereof were analysed with the following analytical method. The analysis confirms that the purity of IA >99.5% injected as such and the stability of the formulation after freeze-drying, evaluated based on the fact that there is no other peak in the chromatogram except for Ia and Ib.
Sample solution: 1.5 mg/ml in methanol. Inject immediately after preparing the solution. The mixtures of formula (IA) and (IB) described in Table 2 were prepared and then appropriately diluted and injected in HPLC to evaluate the profile at T0.
The same mixtures were re-prepared exactly as described in the experimental part, dry frozen and controlled in HPLC after freeze-drying, 7 days later. During these 7 days the samples were stored inside their amber glass vials in a protective atmosphere at room temperature. The freeze-dried products were dissolved in water at the same dilution as the not freeze-dried samples.
The stability of the freeze-dried powders stored in the vials was evaluated using HPLC even after 6 months. The freeze-dried products are stable, even without the presence of sodium iodide, formulation 9.
The reconstituted solution was stable if stored at 4-10° C. for at least 24 hours (formulations 1, 3, 5 and 7).

[3] = aqueous solution; cited from earlier work
[4] = after intravenous administration; cited from earlier work
[5] = freeze-dried, 10 mg/ml in water
[6] = not freeze-dried, 5 mg/ml in water
[7] = not freeze-dried, 10 mg/ml in water

CC1(C)C(/C=C/C=C/C=C/C=C2\N(CCCCS(=O)(=O)[O-])c3ccc4ccccc4c3C2(C)C)=[N+](CCCCS(=O)(=O)[O-])c2ccc3ccccc3c21.[Na+] [069/079]
Filtration on 0.45 μm syringe filter: Pressure ([1]; freeze-dried, 5 mg/ml in water): Low | Filtration on 0.45 μm syringe filter: ml filtered ([1]; freeze-dried, 5 mg/ml in water): 10 mL | Filtration on 0.45 μm syringe filter: Pressure [1, 5]: Low | Filtration on 0.45 μm syringe filter: ml filtered [1, 5]: 10 mL | Filtration on 0.45 μm syringe filter: Pressure [1, 6]: Block | Filtration on 0.45 μm syringe filter: ml filtered [1, 6]: 0 mL | Filtration on 0.45 μm syringe filter: Pressure [1, 7]: Block | Filtration on 0.45 μm syringe filter: ml filtered [1, 7]: 0 mL

CC1(C)C(/C=C/C=C/C=C/C=C2\N(CCCCS(=O)(=O)[O-])c3ccc4ccccc4c3C2(C)C)=[N+](CCCCS(=O)(=O)[O-])c2ccc3ccccc3c21.[Na+] [compound of formula (IA), 1H-benz[e]indole, 2-[7-[1,3-dihydro-1,1-dimethyl-3-(4-sulfobutyl)-2H-benz[e]indol-2-ylidene]-1,3,5-heptatrienyl]-1,1-dimethyl-3-(4-sulfobutyl) hydroxide, inner salt, sodium salt]
Stability by HPLC as such and after freeze-drying [2]: stable | Degradation by freeze-drying (HPLC) ([2]; as such or in mixture with (IB), with or without sodium iodide): does not degrade | Decomposition when dissolved in water [3]: non-detectable decomposition for a few hours

O=C([O-])c1ccccc1-c1c2ccc(=O)cc-2oc2cc([O-])ccc12.[Na+].[Na+] [compound of formula (IB), sodium fluorescein]
Stability by HPLC as such and after freeze-drying [2]: stable | Time to complete removal by the kidneys [4]: 24 to 36 h
